In PMC3794980, “Identification of Conserved and HLA Promiscuous DENV3 T-Cell Epitopes” (PLoS Neglected Tropical Diseases, 2013):
Where no end group is shown, it is not given here.

What was measured:
Test in all cases: biochemical
Type in all cases: binding
DRB4*0101 = DRB4*0101 (Homo sapiens, UniProt P01903+P13762, G164S)
DRB3*0101 = DRB3*0101 (Homo sapiens, UniProt P01903+P79483)
DRB5*0101 = DRB5*0101 (Homo sapiens, UniProt P01903+Q30154)

Molecule	IC50 (DRB4*0101) [nM]	IC50 (DRB3*0101) [nM]	IC50 (DRB5*0101) [nM]
CC(C)C[C@H](NC(=O)[C@H](CCC(=O)O)NC(=O)[C@H](CC(C)C)NC(=O)[C@H](CCCCN)NC(=O)CNC(=O)[C@H](CC(C)C)NC(=O)[C@H](Cc1c[nH]cn1)NC(=O)[C@H](Cc1c[nH]c2ccccc12)NC(=O)[C@@H]1CCCN1C(=O)CNC(=O)[C@H](C)NC(=O)[C@@H](NC(=O)[C@H](CCC(N)=O)NC(=O)[C@@H](NC(=O)[C@@H](N)Cc1c[nH]cn1)[C@@H](C)O)[C@@H](C)O)C(=O)O [NS1 261-275]	666	1330	–
CC[C@H](C)[C@H](NC(=O)[C@H](CC(C)C)NC(=O)[C@H](CO)NC(=O)[C@H](C)NC(=O)[C@H](CCCCN)NC(=O)[C@H](CCC(=O)O)NC(=O)[C@H](CC(C)C)NC(=O)[C@H](CCCCN)NC(=O)[C@H](Cc1c[nH]c2ccccc12)NC(=O)[C@@H](N)CO)C(=O)N[C@@H](CCC(=O)O)C(=O)N[C@H](C(=O)N[C@@H](CCCCN)C(=O)N[C@H](C(=O)N[C@@H](CS)C(=O)O)[C@@H](C)O)C(C)C [NS1 209-223]	5020	–	1180
CC[C@H](C)[C@H](NC(=O)[C@H](CC(C)C)NC(=O)[C@H](CC(=O)O)NC(=O)[C@H](CCCCN)NC(=O)[C@@H](N)CCCCN)C(=O)N[C@@H](CO)C(=O)N[C@@H](Cc1ccc(O)cc1)C(=O)NCC(=O)NCC(=O)NCC(=O)N[C@@H](Cc1c[nH]c2ccccc12)C(=O)N[C@@H](CCCNC(=N)N)C(=O)N[C@@H](CC(C)C)C(=O)N[C@@H](CO)C(=O)N[C@@H](C)C(=O)O [NS3 73-87]	3470	–	71
CC[C@H](C)[C@H](NC(=O)[C@H](Cc1c[nH]c2ccccc12)NC(=O)[C@H](CCC(=O)O)NC(=O)[C@H](CC(N)=O)NC(=O)CNC(=O)[C@H](CO)NC(=O)[C@H](CC(N)=O)NC(=O)[C@@H](N)Cc1c[nH]c2ccccc12)C(=O)N[C@H](C(=O)N[C@@H](CC(=O)O)C(=O)N[C@@H](Cc1ccccc1)C(=O)N[C@@H](C)C(=O)NCC(=O)N[C@@H](CCCCN)C(=O)N[C@H](C(=O)O)[C@@H](C)O)[C@@H](C)O [NS3 345-359]	1050	32	–
CC[C@H](C)[C@H](NC(=O)[C@H](CCC(=O)O)NC(=O)CNC(=O)[C@H](CCCNC(=N)N)NC(=O)[C@H](CCCCN)NC(=O)[C@H](CC(C)C)NC(=O)CNC(=O)[C@H](CCC(=O)O)NC(=O)[C@H](CCCCN)NC(=O)[C@H](C)NC(=O)[C@H](CCC(=O)O)NC(=O)[C@@H](N)[C@@H](C)O)C(=O)N[C@H](C(=O)N[C@@H](Cc1c[nH]cn1)C(=O)N[C@@H](Cc1c[nH]cn1)C(=O)N[C@@H](C)C(=O)N[C@H](C(=O)O)C(C)C)[C@@H](C)O [NS5 39-55]	563	749	–
C[C@H](NC(=O)[C@H](Cc1c[nH]c2ccccc12)NC(=O)[C@@H](NC(=O)[C@H](CCCCN)NC(=O)[C@H](Cc1ccc(O)cc1)NC(=O)[C@@H]1CCCN1C(=O)[C@H](CC(N)=O)NC(=O)[C@H](CCC(=O)O)NC(=O)[C@H](CC(=O)O)NC(=O)[C@H](CC(=O)O)NC(=O)[C@H](Cc1ccc(O)cc1)NC(=O)[C@H](Cc1c[nH]cn1)NC(=O)[C@H](Cc1c[nH]c2ccccc12)NC(=O)[C@@H](N)[C@@H](C)O)[C@@H](C)O)C(=O)N[C@@H](Cc1ccc(O)cc1)C(=O)N[C@@H](Cc1c[nH]cn1)C(=O)NCC(=O)O [NS5 290-306]	15600	–	–
CC[C@H](C)[C@H](NC(=O)[C@@H](NC(=O)[C@H](CC(C)C)NC(=O)[C@H](CC(N)=O)NC(=O)[C@H](CCCNC(=N)N)NC(=O)[C@H](CCCCN)NC(=O)[C@H](CCCCN)NC(=O)[C@H](Cc1ccccc1)NC(=O)[C@H](CCSC)NC(=O)[C@H](CCC(=O)O)NC(=O)[C@@H](N)CCC(=O)O)[C@@H](C)O)C(=O)N[C@@H](CCSC)C(=O)N[C@@H](CC(=O)O)C(=O)N[C@@H](CC(C)C)C(=O)N[C@@H](Cc1c[nH]cn1)C(=O)O [NS3 181-195]	68	1260	–
CC[C@H](C)[C@H](NC(=O)[C@H](CO)NC(=O)[C@H](C)N)C(=O)N[C@@H](C)C(=O)N[C@@H](C)C(=O)N[C@@H](CCCNC(=N)N)C(=O)NCC(=O)N[C@@H](Cc1ccc(O)cc1)C(=O)N[C@H](C(=O)N[C@@H](CO)C(=O)N[C@H](C(=O)N[C@@H](CCCNC(=N)N)C(=O)N[C@H](C(=O)NCC(=O)N[C@@H](CCSC)C(=O)O)C(C)C)[C@@H](C)O)[C@@H](C)CC [NS3 293-307]	2670	18900	–
CC[C@H](C)[C@H](NC(=O)[C@H](C)NC(=O)[C@H](CCSC)NC(=O)[C@H](CCCNC(=N)N)NC(=O)[C@H](CCCCN)NC(=O)[C@H](CC(C)C)NC(=O)[C@H](CCCNC(=N)N)NC(=O)[C@H](CCC(=O)O)NC(=O)[C@@H](N)C(C)C)C(=O)N[C@@H](CO)C(=O)NCC(=O)N[C@@H](CC(=O)O)C(=O)N[C@@H](CC(=O)O)C(=O)N[C@@H](CS)C(=O)N[C@H](C(=O)N[C@H](C(=O)N[C@@H](CCCCN)C(=O)O)C(C)C)C(C)C [NS5 652-668]	618	–	–
CC[C@H](C)[C@H](NC(=O)[C@H](CCSC)NC(=O)[C@H](CO)NC(=O)[C@H](CO)NC(=O)[C@H](C)NC(=O)[C@H](CO)NC(=O)CNC(=O)[C@@H](NC(=O)[C@H](C)NC(=O)[C@H](CCCCN)NC(=O)[C@@H](NC(=O)[C@H](CCC(=O)O)NC(=O)[C@H](Cc1ccc(O)cc1)NC(=O)[C@H](CO)NC(=O)CN)C(C)C)[C@@H](C)O)C(=O)N[C@@H](CC(N)=O)C(=O)NCC(=O)O [NS5 306-322]	5550	2290	–
CC[C@H](C)[C@H](N)C(=O)N[C@@H](CO)C(=O)N[C@@H](Cc1ccc(O)cc1)C(=O)NCC(=O)NCC(=O)NCC(=O)N[C@@H](Cc1c[nH]c2ccccc12)C(=O)N[C@@H](CCCNC(=N)N)C(=O)N[C@@H](CC(C)C)C(=O)N[C@@H](CO)C(=O)N[C@@H](C)C(=O)N[C@@H](CCC(N)=O)C(=O)N[C@@H](Cc1c[nH]c2ccccc12)C(=O)N[C@@H](CCC(N)=O)C(=O)N[C@@H](CCCCN)C(=O)O [NS3 77-91]	708	2020	–
EITPQASTTEAILPE [Envelope 161-175]	16600	–	–
CC[C@H](C)[C@H](NC(=O)[C@H](CCC(=O)O)NC(=O)[C@H](C)NC(=O)[C@@H](NC(=O)[C@@H](NC(=O)CNC(=O)[C@@H](N)CCC(N)=O)C(C)C)[C@@H](C)O)C(=O)N[C@H](C(=O)N1CCC[C@H]1C(=O)N[C@@H](CCC(N)=O)C(=O)N[C@@H](C)C(=O)N[C@@H](CO)C(=O)N[C@H](C(=O)N[C@H](C(=O)N[C@@H](CCC(=O)O)C(=O)O)[C@@H](C)O)[C@@H](C)O)[C@@H](C)O [Envelope 156-170]	707	–	–
CC[C@H](C)[C@H](NC(=O)[C@H](CCCCN)NC(=O)[C@H](CCCCN)NC(=O)[C@H](CCC(=O)O)NC(=O)[C@H](CC(C)C)NC(=O)[C@@H]1CCCN1C(=O)[C@H](Cc1c[nH]cn1)NC(=O)[C@@H]1CCCN1)C(=O)N[C@H](C(=O)N[C@@H](CCC(N)=O)C(=O)N[C@@H](Cc1c[nH]c2ccccc12)C(=O)N[C@@H](CC(C)C)C(=O)N[C@@H](CCC(=O)O)C(=O)N[C@H](C(=O)N[C@@H](CCCCN)C(=O)NCC(=O)N[C@H](C(=O)O)C(C)C)[C@@H](C)O)[C@@H](C)O [NS5 636-652]	3830	–	–
CC[C@H](C)[C@H](NC(=O)[C@H](CC(=O)O)NC(=O)[C@H](CCSC)NC(=O)[C@@H](NC(=O)[C@@H](NC(=O)CNC(=O)[C@H](CCCCN)NC(=O)[C@@H]1CCCN1C(=O)[C@@H](NC(=O)[C@@H]1CCCN1)[C@@H](C)O)[C@@H](C)O)C(C)C)C(=O)N[C@H](C(=O)N[C@@H](CO)C(=O)N[C@@H](CCCNC(=N)N)C(=O)N[C@@H](CCCCN)C(=O)N[C@@H](CC(=O)O)C(=O)N[C@@H](CCC(N)=O)C(=O)N[C@@H](CCCNC(=N)N)C(=O)O)[C@@H](C)CC [NS5 582-598]	1540	7220	–
CC[C@H](C)[C@H](NC(=O)[C@H](C)NC(=O)[C@@H](NC(=O)[C@H](C)NC(=O)[C@H](CC(C)C)NC(=O)[C@H](CCCNC(=N)N)NC(=O)[C@H](CCCCN)NC(=O)[C@@H]1CCCN1C(=O)[C@H](CO)NC(=O)[C@H](CC(=O)O)NC(=O)[C@H](C)NC(=O)[C@H](CCC(N)=O)NC(=O)[C@H](Cc1ccccc1)NC(=O)[C@@H](N)CCCCN)[C@@H](C)O)C(=O)N[C@@H](C)C(=O)O [NS1 33-47]	916	22	–
CC[C@H](C)[C@H](NC(=O)[C@@H](NC(=O)[C@H](CCSC)NC(=O)[C@H](CC(=O)O)NC(=O)[C@H](CO)NC(=O)[C@H](CCC(=O)O)NC(=O)[C@H](CC(C)C)NC(=O)[C@@H](NC(=O)CNC(=O)[C@H](CC(N)=O)NC(=O)[C@H](CO)NC(=O)[C@H](Cc1c[nH]c2ccccc12)NC(=O)[C@H](CC(C)C)NC(=O)[C@@H](NC(=O)[C@@H](N)Cc1c[nH]cn1)[C@@H](C)O)C(C)C)[C@@H](C)CC)C(=O)O [NS1 229-243]	8080	733	–
CC[C@H](C)[C@H](NC(=O)[C@H](C)NC(=O)[C@H](CCC(=O)O)NC(=O)[C@H](CCCNC(=N)N)NC(=O)[C@@H](N)C(C)C)C(=O)N[C@@H](CCCCN)C(=O)N[C@@H](CCCNC(=N)N)C(=O)N[C@@H](CCCNC(=N)N)C(=O)N[C@@H](CC(C)C)C(=O)N[C@@H](CCCNC(=N)N)C(=O)N[C@H](C(=O)N[C@@H](CC(C)C)C(=O)N[C@H](C(=O)N[C@@H](CC(C)C)C(=O)N[C@@H](C)C(=O)O)[C@@H](C)CC)[C@@H](C)O [NS3 209-223]	5.1	2610	–
CC[C@H](C)[C@H](NC(=O)[C@H](Cc1c[nH]c2ccccc12)NC(=O)[C@H](CCC(=O)O)NC(=O)[C@@H](N)CC(N)=O)C(=O)N[C@H](C(=O)N[C@@H](CC(=O)O)C(=O)N[C@@H](Cc1ccccc1)C(=O)N[C@@H](C)C(=O)NCC(=O)N[C@@H](CCCCN)C(=O)N[C@H](C(=O)N[C@H](C(=O)N[C@@H](Cc1c[nH]c2ccccc12)C(=O)N[C@@H](Cc1ccccc1)C(=O)N[C@H](C(=O)O)C(C)C)C(C)C)[C@@H](C)O)[C@@H](C)O [NS3 349-363]	5420	221	–
CC[C@H](C)[C@H](NC(=O)[C@@H](NC(=O)[C@H](CC(C)C)NC(=O)[C@H](CC(N)=O)NC(=O)[C@H](CCCNC(=N)N)NC(=O)[C@H](CCCCN)NC(=O)[C@@H](N)CCCCN)[C@@H](C)O)C(=O)N[C@@H](CCSC)C(=O)N[C@@H](CC(=O)O)C(=O)N[C@@H](CC(C)C)C(=O)N[C@@H](Cc1c[nH]cn1)C(=O)N1CCC[C@H]1C(=O)NCC(=O)N[C@@H](CO)C(=O)NCC(=O)O [NS3 185-199]	7.6	1460	–
